Assay results taken from PMC2933614, “Quantitative in vitro and in vivo pharmacological profile of CE-178253, a potent and selective cannabinoid type 1 (CB1) Receptor Antagonist” (BMC Pharmacology, 2010).

Legend:
[1] = molecular target: T1, human CB2 receptor (Homo sapiens, UniProt P34972); experiment: Competition radioligand binding, human CB2
T1 construct: expressed in transfected cells
Protocol: HEK293 (CB1) or CHO (CB1 and CB2) cells (ATCC) were stably transfected with the human CB1 or CB2 receptors. Rat brain, and recombinant CB1 and CB2 and membranes were prepared as described. A Pierce™ BCA kit was used to determine protein concentrations.
10 μg of membranes per well from human CB1 and CB 2 receptor transfected cells and rat brain was used in the assay. The plates were covered and placed in an incubator at 30°C for 60 min. At the end of the incubation period 125 μl of stop buffer (10% BSA plus TME) was added to the reaction plate. The plates were then harvested onto GF/C filter plates (Perkin Elmer Life Sciences) presoaked in BSA (5 mg/ml) plus TME. Each filter was washed twice with TME and dried overnight. In the morning the filters were counted on a Wallac Trilux™ counter.
Saturation and competition radioligand binding assays were used to characterize membranes prepared from human recombinant CB1 and CB2 and rat brain membranes.

[2] = Fast-induced re-feeding food intake; format: in vivo, rat; conditions: for Food Intake % decrease (mean ± SEM): 2 hr after return of food
Text: All animal studies were approved by the Institutional Animal Care and Use Committee. Male Sprague Dawley rats on normal chow (8 weeks old, 250-300 g on arrival, 300-350 g on test day) were obtained from Charles River. After arrival, animals were individually housed and placed on powdered rat chow. Rats were maintained on a 12-hr light/dark cycle and received food and water ad libitum. In all studies CE-178253 and veh (0.5% methyl cellulose) administration to rats and mice was by oral gavage.
For the fast-induced re-feeding assay, food was removed from the cages the afternoon preceding the test day and the rats were fasted overnight. After the overnight fast, rats were administered veh. or CE-178253. […]
Administration of CE-178253 to male S-D rats inhibited overnight fast-induced refeeding. S-D rats were fasted overnight and veh. (0.5% methylcellulose; MC) or CE-178253 was administered orally. Food was provided to the rats 30 min after dosing. Food intake was measured 30 min and 2 hr after return of food. Dose- and unbound plasma concentration-dependent decreases in cumulative FI versus veh. were observed (Figure 4A, B, Table 3) at both time points after return of food. However, the efficacy (as a percent) was greater in the 0.5-2 hr interval than in the first 0.5 interval. In contrast, FI efficacy in the dark-phase feeding was consistent throughout the first four hr (Figure 3B).

[3] = Four day DIO rat food intake and body weight study; format: in vivo; conditions: 4-day, DIO rats
Protocol: Male 15 week old S-D rats which had been maintained on a high fat diet (Research Diets, D12079BM, 45% kcal from fat) for 10 weeks were selected for the DIO weight loss study. DIO rats were singly housed were acclimated to handling and dosing and two days of food intake were recorded to establish baseline food intake values before dosing was initiated. The heaviest animals were randomly sorted and assigned to treatment groups (n = 8 per group). The mean starting weight of all animals was 639 ± 8 g. Rats were dosed (2 mls/kg) with veh. or CE-178253 according to body weight. FI and BW were recorded daily.
DIO rats were treated once daily with veh. (0.5% MC) or CE-178253 at doses of 0.3 mg/kg p.o. or 1 mg/kg p.o. in a 4-day study (Figures 6A and 6B). […] The effects on FI were apparent after the first doses and sustained over the 4-day study period. […] In contrast, there was no change in weight in veh-treated rats. Initial and final body weights of veh-treated rats were 643 ± 15 g and 645 ± 14 g, respectively. Initial and final body weights of 0.3 mg/kg CE-178253-treated rats were 632 ± 11 g and 616 ± 12 g, respectively. Initial and final body weights of 1 mg/kg CE-178253-treated rats were 637 ± 11 g and 602 ± 11 g, respectively. A statistically significant difference in BW between veh and the 1 mg/kg dose was observed (p < 0.05).

T1 sequence (P34972 whole entry): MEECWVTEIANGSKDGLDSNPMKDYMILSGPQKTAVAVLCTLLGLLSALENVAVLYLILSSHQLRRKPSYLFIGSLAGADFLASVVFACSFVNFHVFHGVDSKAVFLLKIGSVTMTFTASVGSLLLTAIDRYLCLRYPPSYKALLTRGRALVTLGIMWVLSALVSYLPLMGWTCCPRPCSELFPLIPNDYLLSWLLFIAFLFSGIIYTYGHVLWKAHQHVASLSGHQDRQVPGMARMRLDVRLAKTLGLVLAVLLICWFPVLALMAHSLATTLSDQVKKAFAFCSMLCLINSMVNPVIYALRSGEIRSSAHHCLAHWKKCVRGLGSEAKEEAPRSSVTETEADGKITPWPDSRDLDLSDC

Ki ([1]; [3H]CP-55940, ± SEM (n), read-out: Ki, competition binding, hCB2): 15.7 ± 6.17 µM
Selectivity (hCB2 vs hCB1 binding Ki) ([1]; difference in binding Ki values): > 30,000 fold
EC50 ([2]; Rattus norvegicus, […], read-out: EC50, reduction of food intake): 0.00095 µM
Compound: CCNC1(C(N)=O)CN(c2nc(C)nc3c(-c4ccc(Cl)cc4)c(-c4ccccc4Cl)nn23)C1 [CE-178253]
Food Intake % decrease (mean ± SEM) ([2]; 0.3 mg/kg p.o.): 6 ± 3%
Food Intake % decrease (mean ± SEM) ([2]; 1 mg/kg p.o.): 25 ± 11%
Food Intake % decrease (mean ± SEM) ([2]; 3 mg/kg p.o.): 62 ± 5.2 %
Food Intake % decrease (mean ± SEM) ([2]; 10 mg/kg p.o.): 75 ± 6.2 %
Reduction in FI ([2]; interval between dosing and return of food extended to 2 hr, at 50% receptor occupancy, p < 0.05): 27%
Maximal FI reduction ([2]; two hr): 70%
Decrease in body weight compared to veh ([3]; 0.3 mg/kg p.o. once daily): 3.3%
Final body weight ([3]; 0.3 mg/kg, initial 632 ± 11 g): 616 ± 12 g
Decrease in body weight compared to veh ([3]; 1 mg/kg p.o. once daily): 5.9%
Final body weight ([3]; 1 mg/kg, initial 637 ± 11 g): 602 ± 11 g
